Patent US3948933A, “Pyrrolo[1,2-c]imidazolediones” (priority 1973, dated 1976)
Like-named read-outs stand apart in the source and are kept apart here.

Assays:
[1] = test system: secondary conditioned response; experiment: inhibition of the secondary conditioned response in rats (anxiolytic and tranquilizing properties); type: in vivo; settings: 60 mg/kg i.p.
Description: (§1) The depressant activity of the new pyrroloimidazole-diones on the C.N.S. of animals is evidenced by testing the compounds in mice according to the Irwin method. The tranquilizing and anxiolytic activity is evaluated on the basis of the secondary conditioned response in rats.

C.N.S. = experiment: Irwin test (Irwin method) in mice, depressant activity on the C.N.S.; type: in vivo; settings: Mus musculus, ip
Description: as §1
In experiments in mice with the representative compound α-2-(o-chlorophenyl)-5,6,7,7a-tetrahydro-1,3(2H)-dioxo-1H-pyrrolo[1,2-c]imidazolo-5-carboxylic acid, the following ED50 values were determined for parameters of the Irwin test which are related to sedative and hypnotic activities.

[2] = acute toxicity (LD50) in mice; settings: mouse, in vivo, ip

With `CCN(CC)C(=O)C1CCC2C(=O)N(c3ccccc3)C(=O)N12` (single isomer, unassigned) [Example 21, α(+)-5-diethylcarbamyl-2-phenyl-5,6,7,7a-tetrahydro-1H-pyrrolo[1,2-c]imidazole-1,3(2H)-dione] the Deconditioned/Conditioned ([1]; 60 mg/kg) was 7/10.

For `CCN(CC)C(=O)C1CCC2C(=O)N(c3ccccc3)C(=O)N12` (single isomer, unassigned) [Example 22, α(-)-5-diethylcarbamyl-2-phenyl-5,6,7,7a-tetrahydro-1H-pyrrolo[1,2-c]imidazole-1,3(2H)-dione], the Deconditioned/Conditioned ([1]; 60 mg/kg) was 6/10.

For `CCN(CC)C(=O)C1CCC2C(=O)N(c3ccccc3)C(=O)N12` (stereo not drawn) [Example 12, α-5-diethylcarbamyl-2-phenyl-5,6,7,7a-tetrahydro-1H-pyrrolo[1,2-c]imidazole-1,3(2H)-dione], the Deconditioned/Conditioned [1] was 8/10.

In the case of `CCN(CC)C(=O)C1CCC2C(=O)N(c3cccc(Cl)c3)C(=O)N12` (stereo not drawn) [Example 13, α-5-diethylcarbamyl-2-(m-chlorophenyl)-5,6,7,7a-tetrahydro-1H-pyrrolo[1,2-c]imidazole-1,3(2H)-dione], the Deconditioned/Conditioned [1] is reported as 7/10.

In the case of `CCNC(=O)C1CCC2C(=O)N(c3ccccc3)C(=O)N12` (stereo not drawn) [Example 14, α-5-ethylcarbamyl-2-phenyl-5,6,7,7a-tetrahydro-1H-pyrrolo[1,2-c]imidazole-1,3(2H)-dione], the Deconditioned/Conditioned [1] is reported as 7/10.

With `CCN(CC)C(=O)C1CCC2C(=O)N(c3cccc(C(F)(F)F)c3)C(=O)N12` (centres unmarked) [Example 37, 5-diethylcarbamyl-2-(m-trifluoromethyl)phenyl-5,6,7,7a-tetrahydro-1H-pyrrolo-[1,2-c]imidazole-1,3(2H)-dione] the Deconditioned/Conditioned [1] was 10/10.

For `O=C(O)C1CCC2C(=O)N(c3ccccc3Cl)C(=O)N12` (stereo not drawn) [α-2-(o-chlorophenyl)-5,6,7,7a-tetrahydro-1,3(2H)-dioxo-1H-pyrrolo[1,2-c]imidazolo-5-carboxylic acid], the ED50 (C.N.S.; read-out: ED50, Impairment of motor coordination) was 100 mg/kg, the ED50 (C.N.S.; read-out: ED50, Minimal hypnotic dose) was 200 mg/kg and the ED50 (C.N.S.; read-out: ED50, Righting reflex) was 80 mg/kg. For the same compound, the ED50 (C.N.S.; read-out: ED50, Spontaneous activity) was 100 mg/kg and the LD50 [2] was about 700 mg/kg.
